This passage reports T/C results from PubChem BioAssay AID328 (DTP/NCI, 2004).

This assay relates to BDF1 mice, P388 leukemia ip, median survival T/C. The experiment in a line: NCI In Vivo Anticancer Drug Screen. Data for tumor model P388 Leukemia (intraperitoneal) in B6D2F1 (BDF1) mice. Conditions: endpoint: median survival time, higher = longer survival. On the procedure: The antitumor activity of compounds was measured in mice bearing transplantable tumors. Survival or tumor size were measured and the results are expressed as the measurement made in the treated group (T) divided by the measurement made in the vehicle treated control group (C). The tumor model used in this assay is P388 Leukemia (intraperitoneal) in B6D2F1 (BDF1) mice

The mark [1] stands for this setting: dose: 6.25 mg/kg/injection, schedule: Q01DX009 (ip), vehicle: saline.
The mark [2] stands for this setting: dose: 50.0 mg/kg/injection, schedule: Q01DX009 (ip), vehicle: saline with Tween-80.
[3] abbreviates: dose: 100.0 mg/kg/injection, schedule: Q01DX009 (ip), vehicle: saline with Tween-80.
Where [4] appears, read: dose: 100.0 mg/kg/injection, schedule: Q04DX003 (ip), vehicle: saline with Tween-80.
Setting [5] is: dose: 200.0 mg/kg/injection, schedule: Q04DX003 (ip), vehicle: saline with Tween-80.
The mark [6] stands for this setting: dose: 400.0 mg/kg/injection, schedule: Q04DX003 (ip), vehicle: saline with Tween-80.
[7] abbreviates: dose: 12.5 mg/kg/injection, schedule: Q04DX003 (ip), vehicle: saline with Tween-80.
The mark [8] stands for this setting: dose: 25.0 mg/kg/injection, schedule: Q04DX003 (ip), vehicle: saline with Tween-80.
Setting [9] is: dose: 50.0 mg/kg/injection, schedule: Q04DX003 (ip), vehicle: saline with Tween-80.
Setting [10] is: dose: 12.5 mg/kg/injection, schedule: Q01DX009 (ip), vehicle: saline with Tween-80.
Where [11] appears, read: dose: 25.0 mg/kg/injection, schedule: Q01DX009 (ip), vehicle: saline with Tween-80.

Structures are written as SMILES. Values joined by “and” are separate entries in the source; they are usually repeats but may differ in a detail not shown here. Equal entries are not always repeated. Toxic doses and inconclusive results are not listed.

With `O/N=C(\C[n+]1ccccc1)c1ccc2ccccc2c1`, the T/C runs as follows: (dose: 1.56 mg/kg/injection, schedule: Q01DX009 (ip), vehicle: Klucel (hydroxypropylcellulose) (HPC)) 113 % of control; (dose: 3.12 mg/kg/injection, schedule: Q01DX009 (ip), vehicle: Klucel (hydroxypropylcellulose) (HPC)) 120 % of control; (dose: 3.12 mg/kg/injection, schedule: Q01DX009 (ip), vehicle: saline) 107 % of control; (dose: 6.25 mg/kg/injection, schedule: Q01DX009 (ip), vehicle: Klucel (hydroxypropylcellulose) (HPC)) 122 % of control; under setting [1], 120 % of control; (dose: 50.0 mg/kg/injection, schedule: Q01DX009 (ip), vehicle: saline) 106 % of control.

As for `CCCCCCCC[N+]12CC[N+](CCCCCCCC)(CC1)CC2`, the T/C was 106 % of control (dose: 3.13 mg/kg/injection, schedule: Q01DX009 (ip), vehicle: saline) and 103 % of control under setting [1].

Consider `O=C1Nc2ccc(Br)cc2C1=Nc1ccc(Cl)cc1`, for which the T/C was 101 % of control under setting [2]; 105 % of control under setting [3]; 118 % of control (dose: 200.0 mg/kg/injection, schedule: Q01DX009 (ip), vehicle: saline with Tween-80).

Take `CCCOCNC(=O)c1cccnc1`: the T/C by setting is: (dose: 100.0 mg/kg/injection, schedule: Q01DX001 (ip), vehicle: saline) 95 % of control; (dose: 200.0 mg/kg/injection, schedule: Q01DX001 (ip), vehicle: saline) 100 % of control; (dose: 400.0 mg/kg/injection, schedule: Q01DX001 (ip), vehicle: saline) 100 % of control.

As to `CC(=O)Oc1cc(OCCCc2ccc(F)cc2)cc2c1-c1ccccc1CC2`, the T/C is 99 % of control under setting [4], 89 % of control under setting [5] and 97 % of control under setting [6].

Take `CCN(CC)Cc1cc(Nc2cc(C)nc(Nc3ccc(Cl)c(Cl)c3)n2)ccc1OC`: the T/C is 110 % of control under setting [7], 110 % of control under setting [8] and 110 % of control under setting [9].

On to `CSc1nc(=O)c(=O)nc(Nc2ccccc2)n1-c1ccccc1`, for which the T/C reads like this: under setting [10], 88 % of control; under setting [11], 95 % of control; under setting [2], 88 % of control.

Turning to `CC1C=NNC1=O` (configuration not stated), the T/C by setting is: (dose: 100.0 mg/kg/injection, schedule: Q01DX001 (ip), vehicle: saline with Tween-80) 95 % of control and 118 % of control; (dose: 175.0 mg/kg/injection, schedule: Q01DX001 (ip), vehicle: saline with Tween-80) 100 % of control; (dose: 176.0 mg/kg/injection, schedule: Q01DX009 (ip), vehicle: Klucel (hydroxypropylcellulose) (HPC)) 120 % of control; (dose: 200.0 mg/kg/injection, schedule: Q01DX001 (ip), vehicle: saline with Tween-80) 104 % of control; (dose: 265.0 mg/kg/injection, schedule: Q01DX001 (ip), vehicle: saline with Tween-80) 100 % of control; (dose: 400.0 mg/kg/injection, schedule: Q01DX001 (ip), vehicle: saline with Tween-80) 100 % of control. Further, the T/C (dose: 600.0 mg/kg/injection, schedule: Q01DX001 (ip), vehicle: saline with Tween-80) was 109 % of control.

For the compound `O=C1C=C(N2CC2)c2ccccc2C1=O`, the T/C was 100 % of control (dose: 2.5 mg/kg/injection, schedule: Q01DX009 (ip), vehicle: Klucel (hydroxypropylcellulose) (HPC)); 90 % of control (dose: 5.0 mg/kg/injection, schedule: Q01DX009 (ip), vehicle: Klucel (hydroxypropylcellulose) (HPC)); 104 % of control (dose: 10.0 mg/kg/injection, schedule: Q01DX009 (ip), vehicle: Klucel (hydroxypropylcellulose) (HPC)); 109 % of control (dose: 11.0 mg/kg/injection, schedule: Q04DX003 (ip), vehicle: saline with Tween-80); 104 % of control (dose: 16.5 mg/kg/injection, schedule: Q04DX003 (ip), vehicle: saline with Tween-80); 104 % of control (dose: 20.0 mg/kg/injection, schedule: Q01DX009 (ip), vehicle: Klucel (hydroxypropylcellulose) (HPC)). Further, the T/C under setting [8] is 118 % of control.

Regarding `CCCOC1=C(N2CC2)C(=O)C(OCCC)=C(N2CC2)C1=O`, the T/C was 117 % of control (dose: 2.2 mg/kg/injection, schedule: Q04DX003 (ip), vehicle: saline with Tween-80); 200 % of control (dose: 5.55 mg/kg/injection, schedule: Q04DX003 (ip), vehicle: saline with Tween-80); 165 % of control (dose: 7.5 mg/kg/injection, schedule: Q04DX003 (ip), vehicle: saline with Tween-80); 163 % of control and 200 % of control (dose: 8.33 mg/kg/injection, schedule: Q04DX003 (ip), vehicle: saline with Tween-80); 186 % of control and 200 % of control and 218 % of control under setting [7]; 245 % of control and 260 % of control (dose: 18.7 mg/kg/injection, schedule: Q04DX003 (ip), vehicle: saline with Tween-80). Also, under setting [8], the T/C was 163 % of control.

`CC1=CC(C(O)CC(C)C)C(C)(Cc2ccc(C)cn2)NC1c1ccccc1` (configuration not stated): the T/C reads like this: (dose: 6.25 mg/kg/injection, schedule: Q01DX009 (ip), vehicle: saline with Tween-80) 107 % of control; under setting [10], 102 % of control; under setting [11], 103 % of control.

Consider `S=c1[nH]c2nc(Cl)c(Cl)nc2[nH]1`, for which the T/C was 94 % of control under setting [10]; 92 % of control and 115 % of control under setting [11]; 102 % of control under setting [2]; 94 % of control under setting [9]; 94 % of control and 99 % of control under setting [3]; 92 % of control under setting [4]. For the same compound, the T/C was 94 % of control under setting [5] and 105 % of control (dose: 300.0 mg/kg/injection, schedule: Q01DX009 (ip), vehicle: saline with Tween-80).

For `CC(CO)S(=O)(=O)C(C)(C)C` (configuration not stated), the T/C was 94 % of control (dose: 100.0 mg/kg/injection, schedule: Q04DX003 (ip), vehicle: saline); 95 % of control (dose: 200.0 mg/kg/injection, schedule: Q04DX003 (ip), vehicle: saline); 94 % of control (dose: 400.0 mg/kg/injection, schedule: Q04DX003 (ip), vehicle: saline).

For `CCOC(=O)c1cnc(N(C)C)[nH]c1=O`, the T/C is 103 % of control (dose: 12.5 mg/kg/injection, schedule: Q01DX009 (ip), vehicle: Klucel (hydroxypropylcellulose) (HPC)); 95 % of control (dose: 25.0 mg/kg/injection, schedule: Q01DX009 (ip), vehicle: Klucel (hydroxypropylcellulose) (HPC)); 86 % of control (dose: 50.0 mg/kg/injection, schedule: Q01DX009 (ip), vehicle: Klucel (hydroxypropylcellulose) (HPC)).

For `O=C(CC(O)(C(F)(F)F)C(F)(F)F)c1ccc([N+](=O)[O-])cc1`, the T/C is, setting by setting: (dose: 100.0 mg/kg/injection, schedule: Q01DX009 (ip), vehicle: other) 95 % of control; (dose: 100.0 mg/kg/injection, schedule: Q04DX003 (ip), vehicle: other) 110 % of control; (dose: 200.0 mg/kg/injection, schedule: Q01DX009 (ip), vehicle: other) 95 % of control; (dose: 200.0 mg/kg/injection, schedule: Q04DX003 (ip), vehicle: other) 95 % of control; (dose: 400.0 mg/kg/injection, schedule: Q01DX009 (ip), vehicle: other) 100 % of control; (dose: 400.0 mg/kg/injection, schedule: Q04DX003 (ip), vehicle: other) 100 % of control.

With `COC1CC(N=[N+]=[N-])C(OC(=O)c2ccccc2)C(C)O1` (configuration not stated), the T/C runs as follows: under setting [3], 94 % of control; under setting [4], 101 % of control; under setting [5], 106 % of control; under setting [6], 106 % of control.

As for `CCCCC(C#N)(C(=O)OCC)C(C)(C)C` (configuration not stated), the T/C is 109 % of control (dose: 100.0 mg/kg/injection, schedule: Q01DX009 (ip), vehicle: saline); 118 % of control (dose: 200.0 mg/kg/injection, schedule: Q01DX009 (ip), vehicle: saline); 90 % of control (dose: 400.0 mg/kg/injection, schedule: Q01DX009 (ip), vehicle: saline).

Regarding `N#CC1CCCCC1C1(C#N)CCCCC1Cc1ccc2ccccc2n1` (configuration not stated), the T/C reads like this: (dose: 100.0 mg/kg/injection, schedule: Q04DX002 (ip), vehicle: saline with Tween-80) 96 % of control; (dose: 200.0 mg/kg/injection, schedule: Q04DX002 (ip), vehicle: saline with Tween-80) 104 % of control; (dose: 400.0 mg/kg/injection, schedule: Q04DX002 (ip), vehicle: saline with Tween-80) 107 % of control.
